According to PMC2819003 (Angewandte Chemie (International ed. in English), 2010):

Molecular target: T1, DPPS; decaprenyl diphosphate synthase (Homo sapiens, UniProt Q5T2R2)
T1 sequence (Q5T2R2 1-415): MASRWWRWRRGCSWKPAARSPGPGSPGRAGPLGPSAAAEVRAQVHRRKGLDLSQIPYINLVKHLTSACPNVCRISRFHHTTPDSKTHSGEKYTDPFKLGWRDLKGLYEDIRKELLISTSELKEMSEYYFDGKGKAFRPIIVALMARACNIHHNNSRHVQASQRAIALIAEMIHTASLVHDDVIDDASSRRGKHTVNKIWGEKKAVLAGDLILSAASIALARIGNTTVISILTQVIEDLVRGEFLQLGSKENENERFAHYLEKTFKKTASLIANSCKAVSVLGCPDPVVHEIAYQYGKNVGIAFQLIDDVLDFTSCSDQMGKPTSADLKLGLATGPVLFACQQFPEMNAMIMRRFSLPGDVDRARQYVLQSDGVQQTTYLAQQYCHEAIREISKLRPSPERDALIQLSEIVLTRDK
T1 sequence (Q86YH6 1-399 partner): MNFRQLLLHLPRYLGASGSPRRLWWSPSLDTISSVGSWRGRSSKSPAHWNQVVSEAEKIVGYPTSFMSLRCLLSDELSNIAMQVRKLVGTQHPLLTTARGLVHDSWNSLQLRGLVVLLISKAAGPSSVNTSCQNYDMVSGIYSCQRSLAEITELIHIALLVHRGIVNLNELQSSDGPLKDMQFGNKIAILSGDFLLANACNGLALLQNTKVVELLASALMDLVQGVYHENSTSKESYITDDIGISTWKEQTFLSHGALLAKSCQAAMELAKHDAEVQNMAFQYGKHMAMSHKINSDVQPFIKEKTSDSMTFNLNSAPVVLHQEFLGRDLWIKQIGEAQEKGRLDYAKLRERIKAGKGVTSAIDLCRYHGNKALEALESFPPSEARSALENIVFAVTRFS
Assay: DPPS inhibition assay
Type: biochemical

**Q.** How did the IC50 turn out when `O=P(O)(O)C(O)(Cn1ccnc1)P(=O)(O)O` [zoledronate] was run?
**A.** The IC50 was 5.5 µM.
